Data reported in patent US10827755B2, “Insecticidal compositions and methods” (priority 2015, dated 2020).

How the values were obtained:
Assay type in all cases: in vivo
[1] = system: Yellow Fever Mosquito (YFM); assay: Insect feeding assay (Example 3), yellow fever mosquito; set-up: key: A “+” score was given to samples which showed any level of stunting and/or mortality higher than that of the untreated controls; A “−” score was given to samples which showed no activity; conditions: 0.1 mginiL diet overlay, 6 days, 27° C., summary of two replicates
Protocol: (§1) For evaluating control of insect species, the test unit consisted of a 96-well bioassay plate filled with a species-specific artificial diet. Compounds were dissolved in DMSO and added as diet overlay to the indicated concentration, and dried/maintained overnight before infestation. Once dry, the bioassay plates were infested with a single neonate larva (nymph for lygus) per well. The bioassay plates were then held for 6 days in an incubator at 27° C. and 50% relative humidity. Sample response was then visually assessed based on mortality and stunting of the insect. […] Western corn rootworm data represents a summary of three replicates. Data for all other insect species represents a summary of two replicates.

Soybean Looper (SL) = assay: Insect feeding assay (Example 4), soybean looper; set-up: key: “+” represents mortality or stunting significantly different compared to the untreated control; “−” represents no significant difference in mortality or stunting compared to the untreated control; conditions: 0.05 mg/mL diet overlay, 6 days, 27° C.
Protocol: (§2) For evaluating control of insect species in this example, the test unit consisted of a 96-well bioassay plate filled with species-specific artificial diet. Compounds were dissolved in DMSO and added as diet overlay to the indicated concentration and dried/maintained overnight before infestation. Once dry, the bioassay plates were infested with a single neonate larva (nymph for lygus) per well. The bioassay plates were held for 6 days in an incubator at 27° C. and 50% relative humidity. Each well was assessed for infestation and contamination. Wells that were contaminated or not infested were not included in the stunting and mortality assessment. A stunting score was reported based on the relative size of the survivors within the 8-well column with averaging across a 3 column replicate. Untreated control insects were used as a reference.

[2] = system: Western Corn Root Worm (WCR); assay: Insect feeding assay (Example 3), Western corn rootworm; set-up: key: A “+” score was given to samples which showed any level of stunting and/or mortality higher than that of the untreated controls; A “−” score was given to samples which showed no activity; conditions: 0.1 mg/mL diet overlay, 6 days, 27° C., summary of three replicates
Protocol: as §1

[3] = system: Yellow Fever Mosquito (YEW); assay: Insect feeding assay (Example 4), yellow fever mosquito; set-up: key: “+” represents mortality or stunting significantly different compared to the untreated control; “−” represents no significant difference in mortality or stunting compared to the untreated control; conditions: 0.05 mg/mL diet overlay, 6 days, 27° C.
Protocol: as §2

Fall Armyworm (FAW) = assay: Insect feeding assay (Example 4), fall armyworm; set-up: key: “+” represents mortality or stunting significantly different compared to the untreated control; “−” represents no significant difference in mortality or stunting compared to the untreated control; conditions: 0.05 mg/mL diet overlay, 6 days, 27° C.
Protocol: as §2

[4] = system: Western Tarnished Plantbug; assay: Insect feeding assay (Example 4), Western tarnished plantbug; set-up: key: “+” represents mortality or stunting significantly different compared to the untreated control; “−” represents no significant difference in mortality or stunting compared to the untreated control; conditions: 0.05 mg/mL diet overlay, nymph, 6 days, 27° C.
Protocol: as §2

Diamondback Moth (DBM) [5] = assay: Insect feeding assay (Example 4), diamondback moth; set-up: key: “+” represents mortality or stunting significantly different compared to the untreated control; “−” represents no significant difference in mortality or stunting compared to the untreated control; conditions: 0.05 mg/mL diet overlay, 6 days, 27° C.
Protocol: as §2

[6] = system: Western Corn Rootworm (WCR); assay: Insect feeding assay (Example 4), Western corn rootworm; set-up: key: “+” represents mortality or stunting significantly different compared to the untreated control; “−” represents no significant difference in mortality or stunting compared to the untreated control; conditions: 0.05 mg/mL diet overlay, 6 days, 27° C.
Protocol: as §2

Diamondback Moth (DBM) [7] = assay: Insect feeding assay (Example 3), diamondback moth; set-up: key: A “+” score was given to samples which showed any level of stunting and/or mortality higher than that of the untreated controls; A “−” score was given to samples which showed no activity; conditions: 0.1 mg/mL diet overlay, 6 days, 27° C., summary of two replicates
Protocol: as §1

| SMILES | YEM (0.1 mginiL) mortality and stunting score [1] | SL (0.05 mg/mL) mortality or stunting (Soybean Looper (SL)) | WCR (0.1 mg/mL) mortality and stunting score [2] | YFM (0.05 mg/mL) mortality or stunting [3] | FAW (0.05 mg/mL) mortality or stunting (Fall Armyworm (FAW)) | WTP (0.05 mg/mL mortality or stunting) [4] | DBM (0.05 mg/mL) mortality or stunting (Diamondback Moth (DBM) [5]) | WCR (0.05 mg/mL) mortality or stunting [6] | DBM (0.1 mg/mL) mortality and stunting score (Diamondback Moth (DBM) [7]) |
| --- | --- | --- | --- | --- | --- | --- | --- | --- | --- |
| Cc1cc(C)c(-c2nc(-c3ccccc3)c(-c3ccccc3)[nH]2)c(C)c1 [I-i] | + | − | + | − | − | − | + |  |  |
| Cc1ccc(C)c(-c2nc(-c3c(Cl)cccc3Cl)[nH]c2-c2ccccc2)c1 [I-ii] | + | + | + | + | + | + | + |  |  |
| Cc1ccc(C)c(-c2nc(-c3c(F)cccc3Cl)[nH]c2-c2ccccc2)c1 [I-iii] | + |  |  |  |  |  |  |  |  |
| COc1ccc(-c2nc(-c3ccccc3)c(-c3ccccc3)[nH]2)c(OC)c1 [I-iv] | + | − | + | + | − | − | + |  |  |
| CSc1ccc(-c2nc(-c3ccc(C)cc3)c(-c3ccc(C)cc3)[nH]2)cc1 [I-ix] |  | + |  | − | + | − | + | + |  |
| CCOc1ccccc1-c1nc(-c2ccccc2)c(-c2ccccc2)[nH]1 [I-v] |  | − | + | − | − | − | − |  |  |
| C#CCOc1ccccc1-c1nc(-c2ccccc2)c(-c2ccccc2)[nH]1 [I-vi] |  | − |  | + | − | + | + |  |  |
| Clc1cccc(-c2[nH]c(-c3ccc(Cl)cc3Cl)nc2-c2ccccc2)c1 [I-vii] |  | + |  | + | + | − | + |  |  |
| COc1ccc(-c2nc(-c3ccccc3)c(-c3ccccc3)[nH]2)c(OC)c1OC [I-viii] |  | − |  | + | − | − | + | + |  |
| O=C(c1ccc(F)cc1)c1ccc(-c2nc(-c3cccc(F)c3)[nH]c2-c2ccccc2)cc1 [I-x] |  | + |  | − | + | + | + | + |  |
| C=CCNC(=O)c1cn(-c2ccc(C)cc2)nc1-c1ccccc1 [II-i] | + |  |  |  |  |  | + |  | + |
| CC1CCCCC1NC(=O)c1cn(-c2ccccc2)nc1-c1cccs1 (stereo not drawn) [II-ii] |  | − |  | − | − | − | − |  | + |
| CCOCCNC(=O)c1cn(C)nc1-c1ccccc1Cl [II-iii] | + | − |  | − | − | − | − |  |  |
| Cn1cc(C(=O)NCCC2CCCO2)c(-c2ccccc2Cl)n1 (stereo not drawn) [II-iv] | + | − |  | − | − | − | − |  |  |
| Cn1cc(C(=O)NC2CCSCC2)c(-c2ccccc2Cl)n1 [II-v] | + |  |  |  |  |  |  |  |  |
